Experimental data from patent US12668803B2, “Glypican-3-specific modified aptamer and use thereof” (APTAMER SCIENCES INC., priority 2019, dated 2026).

Key:
Huh-7 cells = assay: Cellular internalization analysis (microscopy, lysotracker/DAPI); type: cell-based
Description: 5 aptamer libraries prepared by truncating the 12-10 aptamer at various lengths [12-12 (35-mer), 12-11 (29-mer), 12-13 (24-mer), 12-14 (23-mer), and 12-15 (18-mer)] were subjected to cellular internalization analysis. In detail, a 6-well plate was prepared, and a round cover glass was placed in the 6-well plate. Huh-7 cells were cultured in the 6-well plate according to the method of Example 1-3. 5 μM of the aptamer stock was mixed with 5×SB18 buffer to prepare the aptamer at a concentration of 4 μM, and heated at 95° C. for 5 min, and then cooled at room temperature for 15 min or more. The next day, the medium was removed from the cultured cells, and a serum-free medium was added thereto, and cultured under conditions of 37° C. and 5% CO2 for 1 hr. The serum-free medium was removed, and then the cells were washed with 2 mL of 1×PBS. KRPH buffer was added, and cultured under conditions of 37° C. and 5% CO2 for 1 hr. 4 μM aptamer was diluted to 25 nM, and then cultured under conditions of 37° C. and 5% CO2 for 1 hr or 4 hr. Washing was repeated three times with 2 mL of 1×PBS. Washing was performed in a shaker at room temperature for 10 min while blocking the light. Thereafter, the cells were fixed by treatment with 4% paraformaldehyde at 4° C. for 10 min. Washing was repeated three times with 2 mL of 1×PBS. A permeabilization solution (0.2% Triton X-100 in 1×PBS) was added, followed by incubation at room temperature for 15 min. Washing was repeated three times with 2 mL of 1×PBS. A blocking solution (3% BSA, 1×PBS) was added, followed by incubation under conditions of 37° C. and 5% CO2 for 20 min. Washing was performed once with 2 mL of 1×PBS. Treatment with a blocking solution containing 150 nM lysotracker was performed, followed by incubation under conditions of 37° C. and 5% CO2 for 1 hr. Washing was repeated three times with 2 mL of 1×PBS, and staining with 4′,6-diamidino-2-phenylindole (DAPI) was performed. The cover glass was carefully removed and […]. […]

[1] = system: squamous cell carcinoma cell A431; assay: Cytotoxicity (CCK-8) of 12-12 G(3); type: cell-based
Description: (§1) In detail, HepG2, Hep3B, and A431 cells (ATCC, Rockville, MD, USA) were each seeded in a 96-well plate at a density of 1×10^4/mL and cultured using a DMEM (Gibco, Grand Island, NY, USA) medium containing 10% FBS (Gibco, Grand Island, NY, USA) and 1% antibiotics (penicillin/streptomycin) under conditions of 5% CO2 and 37° C. The next day, the aptamer stock (100 μM) was mixed with 5×SB18 buffer to prepare the stock at a concentration of 80 μM, and heated at 95° C. for 5 min, and then cooled at room temperature for 15 min or more. The medium was removed from the cultured cells, and 100 μL of a serum-free medium was added thereto, and cultured under conditions of 37° C. and 5% CO2 for 1 hr. The serum-free medium was removed, and then the cells were washed with 100 μL of 1×PBS. 100 μL of KRPH buffer was added, and cultured under conditions of 37° C. and 5% CO2 for 1 hr. The aptamer was diluted with KRPH buffer to 2-fold of the desired concentration, and added to a 96-well plate at 1× concentration, and cultured under conditions of 37° C. and 5% CO2 for 4 hr. After treatment with the aptamer, the KRPH buffer was removed, and then 100 μL of culture medium was added and cultured under conditions of 37° C. and 5% CO2 for 6 days. 6 days later, 10 μL of a CCK-8 kit solution was added to each well, and then cultured under conditions of 37° C. and 5% CO2 for 3 hr. Cell death levels were examined at […] using a microplate reader.

HepG2 = assay: Cytotoxicity (CCK-8) of 12-12 G(3); type: cell-based
Description: as §1

[2] = Serum stability analysis (urea PAGE); type: in vitro ADME, human; details: 100% human serum, 37° C., FIG. 28
Description: To examine whether 12-12, combi 5 aptamer, combi 4 and combi 5 modified aptamers bound with three or five gemcitabines are stable in the human serum, serum stability was analyzed. In detail, 10 μL of […] was added to 100% human serum, followed by incubation at 37° C. for 0 hr, 1 hr, 3 hr, 6 hr, 12 hr, and 24 hr. After incubation, 5 μL of […] was added, and distilled water was added to a volume of 250 μL. 250 μL of phenol:chloroform:isoamyl alcohol (25:24:1) was added in the equal volume, followed by stirring. Each sample was centrifuged at 16000×g for 10 min. The supernatant was transferred to a new tube, and completely dried. The resultant was diluted with 5× sample buffer and distilled water, and boiled at 95° C. for 5 min, and cooled. The sample was separated by urea PAGE (Polyacrylamide gel Electrophoresis) at 220 V for 25 min, and then stained with SYBR gold and examined using a Gel Doc™ EZ system.

Huh 7 cells = assay: Cell binding analysis of Cy5-labeled aptamers (FACS); type: cell-based; details: 25 nM aptamer, 12-10 and truncated aptamers, FIG. 6
Description: The 12-10 aptamer and 5 aptamer libraries prepared by truncating the 12-10 aptamer at various lengths [12-10 (40-mer), 12-12 (35-mer), 12-11 (29-mer), 12-13 (24-mer), 12-14 (23-mer), 12-15 (18-mer)] were subjected to cell binding analysis. Each aptamer sequence was labeled with Cy5 at the 5′ end thereof according to the method of Example 1-1. Huh 7 cells (ATCC, Rockville, MD, USA) were seeded at a density of 2×10^6/mL in a 100 mm^2 culture plate, and cultured using a DMEM medium (Gibco, Grand Island, NY, USA) containing 10% FBS (Gibco, Grand Island, NY, USA) and 1% antibiotics (penicillin/streptomycin) under conditions of 5% CO2 and 37° C. 5 μM of the aptamer stock was mixed with 5×SB18 buffer to prepare the aptamer at a concentration of 4 μM, and heated at 95° C. for 5 min, and then cooled at room temperature for 15 min or more. 4 μM of the aptamer was diluted with KRPH buffer (20 mM HEPES, 5 mM KH2PO4, 1 mM MgSO4, 1 mM CaCl2, 136 mM NaCl, 4.7 mM KCl, pH 7.4) at a concentration of 25 nM. The culture medium was removed from the cultured cells, and 4 mL of phosphate-buffered saline (PBS) was added thereto, followed by washing, and then 4 mL of PBS was removed. 4 mL of cold PBS or warm PBS was added, and cells were scraped using a scraper, and collected in tubes, followed by pipetting. The cells were divided and added to fluorescence-activated cell sorting (FAC) tubes according to the number of samples, followed by centrifugation at 4° C. and 2000 rpm for 4 min. After removing the supernatant, each 500 μL of 25 nM aptamer and control (31-08 (40-mer) aptamer) were added to […] of KRPH buffer, followed by pipetting. The tube was covered with foil to block the light, followed by incubation at 4° C. for 30 min. After incubation, centrifugation was performed at 4° C. and 2000 rpm for 4 min, and the supernatant was removed. 2 mL of cold 1×PBS was added, washed, centrifuged at 4° C. and 2000 rpm for 4 min, and the supernatant was removed. This process was repeated three times. […] Cy5 was measured at […]. […]

Hep3B = assay: Cellular internalization of chemically optimized aptamers (FIG. 17A); type: cell-based; details: combi 1 to combi 5, FIG. 17A
[3] = system: hepatoma specific cells expressing high levels of GPC3 (HepG2, Hep3B); assay: Cellular internalization of combi 6 to combi 10 (FIG. 17B); type: cell-based

12-12 G(3) (DNA GNGAANGCGNNGAANNANGNSSSNNCAGNCANCAC; three gemcitabines, BzdU and 3' inverted dT, positions not given here)
cellular internalization over time (Huh-7 cells; 1 hr, 2 hr, and 4 hr after the start of internalization, FIG. 11): most excellent cellular internalization | cellular internalization (Huh-7 cells; vs 12-12 and scrambled 12-12, FIG. 10): most excellent cellular internalization | cell-killing effects on A431 ([1]; 10 nM to 1 μM, FIG. 12): no cell-killing effects | cell-killing effects on A431 ([1]; 31.75 nM to 2 μM, FIG. 13): no cell-killing effects | HepG2-killing effects (HepG2; 10 nM to 1 μM, vs 12-12 or 30 nM to 3 μM gemcitabine, FIG. 12): excellent HepG2-killing effects | HepG2-killing effects (HepG2; 31.75 nM to 2 μM, vs same concentrations of 12-12 or gemcitabine, FIG. 13): excellent HepG2-killing effects

12-12: SEQ ID NO: 6, 35-mer truncated from 2428-12-10, idT at 3′ end (GNGAANGCGNNGAANNANGNCCCNNCAGNCANCAC; modified base n undefined, 3' idT per name, further chemistry not given here)
cellular internalization (Huh-7 cells; 25 nM, truncated aptamers, FIG. 7): most excellent cellular internalization | half-life in the human serum [2]: 6 h | cell binding ability (Huh 7 cells): most excellent cell binding ability

Combi 4: SEQ ID NO: 13, chemically optimized 12-12 aptamer (G_{Me}nG_{Me}A_{F}A_{F}nGCGnnG_{F}A_{F}A_{F}nnA_{F}nGYC_{F}C_{F}C_{F}nnCAG_{Me}nCAnCAMC_{F}; 2'-F and 2'-OMe units, modified bases n, Y, M undefined, 3' idT, as printed in the source, key not given here)
Hep3B cellular internalization (Hep3B): excellent cellular internalization

Combi 8: SEQ ID NO: 17, chemically optimized 12-12 aptamer (G_{Me}nG_{Me}A_{F}A_{F}nGCGnnG_{F}A_{F}A_{Me}nnA_{Me}nWnC_{F}C_{F}C_{F}nnCAG_{Me}nCAnC_{F}A_{Me}C_{F}; 2'-F and 2'-OMe units, modified bases n, W undefined, 3' idT, as printed in the source, key not given here)
cellular internalization [3]: highest cellular internalization

Combi 9: SEQ ID NO: 18, chemically optimized 12-12 aptamer (G_{Me}nG_{Me}A_{F}A_{F}nGCGnnG,A_{F}AnnAnGnC_{F}C_{F}C_{F}nnCAG_{Me}nCAnCrAyCr; 2'-F and 2'-OMe units, modified base n undefined, 3' idT, as printed in the source, key not given here)
cellular internalization [3]: highest cellular internalization
